# According to US4771055A, “7-[[3-(aminomethyl)-3-alkyl]-1-pyrrolidinyl]-quinoline-carboxylic acids” (Warner-Lambert Company, priority 1987, dated 1988):
# Where two headings read alike, the source gives them in different places.
# Columns and labels:
# [1] = tested on: Enterobacter cloacae MA 2646; assay: In vitro antibacterial activity, MIC, microtitration dilution method; type: cell-based; conditions: MA2646, read-out: Minimal Inhibitory Concentration MIC
# Text: (§1) The compounds of the invention display potent antibacterial activity against both gram-positive and -negative bacteria when tested by the microtitration dilution method as described in Heifetz, et al, Antimicr. Agents & Chemoth., 6, 124 (1974), which is incorporated herein by reference.
# [2] = tested on: Escherichia coli Vogel; assay: as above; type: cell-based; conditions: read-out: Minimal Inhibitory Concentration MIC
# Text: as §1
# [3] = tested on: Klebsiella pneumoniae MGH-2; assay: as above; type: cell-based; conditions: MGH2, read-out: Minimal Inhibitory Concentration MIC
# Text: as §1
# [4] = tested on: Proteus rettgeri M 1771; assay: as above; type: cell-based; conditions: Providencia rettgeri, M1771, read-out: Minimal Inhibitory Concentration MIC
# Text: as §1
# [5] = tested on: Pseudomonas aeruginosa UI-18; assay: as above; type: cell-based; conditions: UI18, read-out: Minimal Inhibitory Concentration MIC
# Text: as §1
# [6] = tested on: Staphylococcus aureus H 228; assay: as above; type: cell-based; conditions: H228, read-out: Minimal Inhibitory Concentration MIC
# Text: as §1
# [7] = tested on: Staphylococcus aureus UC-76; assay: as above; type: cell-based; conditions: UC76, read-out: Minimal Inhibitory Concentration MIC
# Text: as §1
# [8] = tested on: Streptococcus faecalis MGH-2; assay: as above; type: cell-based; conditions: Enterococcus faecalis, MGH2, read-out: Minimal Inhibitory Concentration MIC
# Text: as §1
# [9] = tested on: Streptococcus pneumoniae SV-1; assay: as above; type: cell-based; conditions: SV1, read-out: Minimal Inhibitory Concentration MIC
# Text: as §1
# [10] = tested on: Streptococcus pyogenes C-203; assay: as above; type: cell-based; conditions: C203, read-out: Minimal Inhibitory Concentration MIC
# Text: as §1
# [11] = tested on: E. coli; assay: Acute mouse protection test (PD50); type: in vivo; conditions: Escherichia coli, mice, read-out: Protective Dose 50% PD50
# Description: (§2) The advantage of the compounds of the present invention has been observed when tested orally and compared to a standard quinolone where the 7-position contains a corresponding 3-aminomethylpyrrolidinyl group without the additional 3-alkyl or cycloalkyl substituent.
# (§3) Therapeutic activities of the compounds were compared to acute mouse protection tests in which 18- to 22-g female Charles River CD-1 mice were used. Oral or subcutaneous doses in twofold rising incremental series were administered concurrently with bacterial challenge. Challenges were accomplished by the intraperitoneal injection of an estimated 100 medial lethal doses in 0.5 ml volumes of 5% hog gastric mucin or tryptic soy broth. Generally, >90% of the untreated controls died within 48 to 72 hours. Final survival percentages, obtained after four to seven days of observation among groups of 8 to 16 mice, were pooled and used to estimate median protective doses (PD50) by the log-probit method. Ideally a PO/SC ratio for a therapeutically relevant antibacterial should be ≤5. Table 2 indicates the improvement in PO/SC ratio.
# [12] = tested on: P. aerug.; assay: Acute mouse protection test (PD50); type: in vivo; conditions: mice, read-out: Protective Dose 50% PD50
# Description: as §2, §3
# [13] = tested on: S. aureus; assay: Acute mouse protection test (PD50); type: in vivo; conditions: Staphylococcus aureus, mice, read-out: Protective Dose 50% PD50
# Description: as §2, §3
# [14] = tested on: S. pyog.; assay: Acute mouse protection test (PD50); type: in vivo; conditions: mice, read-out: Protective Dose 50% PD50
# Description: as §2, §3
# [15] = tested on: E. coli, P. aerug., S. aureus, S. pyog.; assay: Acute mouse protection test, oral versus subcutaneous activity over all organisms; type: in vivo, mice; conditions: for PO/SC Ratio: ratio of PD50 PO to PD50 SC over the four organisms, mice
# Description: as §2, §3
# [16] = tested on: gram-positive and -negative bacteria; assay: In vitro antibacterial activity, microtitration dilution method (overall); type: cell-based; conditions: comparison with Compound A
# Text: as §1
SMILES,MIC [1],MIC [2],MIC [3],MIC [4],MIC [5],MIC [6],MIC [7],MIC [8],MIC [9],MIC [10],ED50 ([11]; PO),ED50 ([11]; SC),ED50 ([12]; PO),ED50 ([12]; SC),ED50 ([13]; PO),ED50 ([13]; SC),ED50 ([14]; PO),ED50 ([14]; SC),PO/SC Ratio [15],other results
"NCC1CCN(c2c(F)cc3c(=O)c(C(=O)O)cn(C4CC4)c3c2F)C1 (stereo not shown) [Compound A, 7-[3-(aminomethyl)-1-pyrrolidinyl]-1-cyclopropyl-6,8-difluoro-1,4-dihydro-4-oxo-3-quinolinecarboxylic acid, reference compound]",0.8 µg/mL,0.2 µg/mL,0.4 µg/mL,0.8 µg/mL,0.8 µg/mL,0.1 µg/mL,0.013 µg/mL,0.1 µg/mL,0.012 µg/mL,0.012 µg/mL,13 mg/kg,1 mg/kg,> 100 mg/kg,3 mg/kg,10 mg/kg,1 mg/kg,4 mg/kg,0.4 mg/kg,≥ 10,
"CC1(CN)CCN(c2c(F)cc3c(=O)c(C(=O)O)cn(C4CC4)c3c2F)C1 (stereo not shown) [Example 1, 7-[[3-(Aminomethyl)-3-methyl]-1-pyrrolidinyl]-1-cyclopropyl-6,8-difluoro-1,4-dihydro-4-oxo-3-quinolinecarboxylic acid]",0.025 µg/mL,0.05 µg/mL,0.1 µg/mL,0.2 µg/mL,0.4 µg/mL,0.013 µg/mL,≤ 0.003 µg/mL,0.013 µg/mL,0.006 µg/mL,0.025 µg/mL,2 mg/kg,1 mg/kg,38 mg/kg,18 mg/kg,5 mg/kg,2 mg/kg,9 mg/kg,3 mg/kg,≤ 3,"oral activity in mice compared to Compound A ([15]; PD50, mouse protection, comparison with Compound A): greater oral activity in mice; in vitro activity compared to Compound A [16]: comparable in vitro activity"
"CC1(CN)CCN(c2nc3c(cc2F)c(=O)c(C(=O)O)cn3C2CC2)C1 (stereo not shown) [Example 3, 7-[[3-(Aminomethyl)-3-methyl]-1-pyrrolidinyl]-1-cyclopropyl-6-fluoro-1,4-dihydro-4-oxo-1,8-naphthyridine-3-carboxylic acid]",0.1 µg/mL,0.4 µg/mL,0.2 µg/mL,0.8 µg/mL,0.8 µg/mL,0.05 µg/mL,0.013 µg/mL,0.05 µg/mL,0.025 µg/mL,0.05 µg/mL,,,,,,,,,,

# The next lines start with results.
MIC [1],MIC [2],MIC [3],MIC [4],MIC [5],MIC [6],MIC [7],MIC [8],MIC [9],MIC [10],SMILES,ED50 ([11]; PO),ED50 ([11]; SC),ED50 ([12]; PO),ED50 ([12]; SC),ED50 ([13]; PO),ED50 ([13]; SC),ED50 ([14]; PO),ED50 ([14]; SC),PO/SC Ratio [15],other results
0.1 µg/mL,0.1 µg/mL,0.1 µg/mL,0.4 µg/mL,0.8 µg/mL,0.013 µg/mL,≤ 0.003 µg/mL,0.025 µg/mL,≤ 0.003 µg/mL,0.013 µg/mL,"CC1(CN)CCN(c2c(F)c(N)c3c(=O)c(C(=O)O)cn(C4CC4)c3c2F)C1 (stereo not shown) [Example 2, 5-Amino-7-[[3-(aminomethyl)-3-methyl]-1-pyrrolidinyl]-1-cyclopropyl-6,8-difluoro-1,4-dihydro-4-oxo-3-quinolinecarboxylic acid]",,,,,,,,,,
0.05 µg/mL,0.025 µg/mL,0.05 µg/mL,0.1 µg/mL,0.2 µg/mL,0.013 µg/mL,≤ 0.003 µg/mL,0.013 µg/mL,≤ 0.003 µg/mL,0.013 µg/mL,"CC1(CN)CCN(c2c(F)cc3c(=O)c(C(=O)O)cn(C4CC4)c3c2Cl)C1 (stereo not shown) [Example 4, 7-[3-(Aminomethyl)-3-methyl-1-pyrrolidinyl]-8-chloro-1-cyclopropyl-6-fluoro-1,4-dihydro-4-oxo-3-quinolinecarboxylic acid]",,,,,,,,,,
